Results published in ChEMBL document CHEMBL1129107, “Substituted morpholine-2S-acetic acid derivatives: Sch 50911 and related compounds as novel GABAB antagonists” (Bioorg Med Chem Lett, 1996).

How the values were obtained:
[1] = Antagonistic activity was measured by the inhibition of Gamma-aminobutyric acid type B receptor binding to rat brain synaptosomes; type: subcellular
Cavia porcellus [2] = species on record: Cavia porcellus; assay: Antagonistic activity was measured by the reversal inhibition of EFS stimulated neuronal cholinergic contraction of guinea pig tracheal rings at 300 uM; type: functional; conditions: Trachea
Cavia porcellus [3] = species on record: Cavia porcellus; assay: Antagonistic activity was measured by the reversal inhibition of EFS stimulated neuronal cholinergic contraction of guinea pig tracheal rings; type: functional; conditions: Trachea

| SMILES | IC50 [1] [µM] | IC50 (Cavia porcellus [3]) [µM] | inhibition at 300 µM (Cavia porcellus [2]) [%] |
| --- | --- | --- | --- |
| CC[C@H]1CO[C@H](CC(=O)O)CN1 | > 100 |  |  |
| CC[C@@H]1CO[C@H](CC(=O)O)CN1 | > 100 |  |  |
| CCOC(OCC)P(=O)(O)CCCN | 62 | 65 | 50 |
| O=C(O)CC1CNCCO1 (stereo not given) | > 100 |  | 46 |
| O=C(O)CC1CNC2(CC2)CO1 (racemic) | 37 |  |  |
| CC1COC(CC(=O)O)CN1 (racemic; form 1) | 37 |  | 76 |
| CCC1(CO)COC(CC(=O)O)CN1 (racemic; form 1) | 19 |  | 99 |
| CCC1(CO)COC(CC(=O)O)CN1 (racemic; form 2) | 100 |  |  |
| CC1(C)COC(CC(=O)O)CN1 (stereo in doubt; 24) | > 100 |  |  |

These reach a lower IC50 [1]. Values come first.

| IC50 [1] [µM] | IC50 (Cavia porcellus [3]) [µM] | SMILES | inhibition at 300 µM (Cavia porcellus [2]) [%] |
| --- | --- | --- | --- |
| 1.1 |  | CC1(C)CO[C@@H](CC(=O)O)CN1 |  |
| 10 |  | CC[C@@H]1CO[C@@H](CC(=O)O)CN1 | 95 |
| 11 |  | O=C(O)CC1CNC2(CCCC2)CO1 (racemic) | 97 |
| 3 | 4.6 | CC1(C)COC(CC(=O)O)CN1 (racemic) |  |
| 2 | 4.5 | CC1(CO)COC(CC(=O)O)CN1 (racemic; form 1) |  |
| 9 |  | CC1COC(CC(=O)O)CN1 (racemic; form 2) |  |
| 5 |  | CC1(CO)COC(CC(=O)O)CN1 (racemic; form 2) |  |
